Source: article PMC12144822 (Parasites & Vectors, 2025)
Read-outs that look alike come from different tables or passages of the source.

How the values were obtained:
Hsa-GABA α5β2γ2 = Hsa-GABA α5β2γ2 (Homo sapiens, UniProt P18507+P31644+P47870); assay: Two-electrode voltage-clamp inhibition of GABA current, receptor expressed in Xenopus oocytes; conditions: for IC50: Xenopus oocytes, −80 mV, 60 s pre-exposure, co-applied with GABA 0.3 µM (near EC10)
Excerpt: (§1) Complementary DNA (cDNA) encoding for the human GABAA proteins α1 (NM_001127645.2), α2 (NM_001377146.1), α3 (KJ620007.1), α4 (NM_000809.4), α5 (NM_000810.4), α6 (NM_000811.3), β2 (XM_054352312.1), β3 (M82919.1), γ2 (NM_000816.3) and δ (NM_000815.5) were ordered from Genewiz (www.genewiz.com; Leipzig, Germany); for each gene, GenBank accession numbers are provided in parentheses. When necessary, silent mutations were introduced to break NheI or XhoI internal restriction sites. The corresponding open reading frames (ORF) were cloned into the pT7-TS transcription vector (introducing X. laevis β-globin untranslated cDNA to the 5’ and 3’ ends of the gene), following a procedure described in detail in a previous publication. The same process was used to obtain cDNA encoding canine GABAA proteins α4 (XM_025435560.1), α6 (XM_022417729.1) and δ (XM_005620414.2). Gene α2 (XM_025435664.1), α3 (XM_549343.5), α5 (XM_545805.6) and β3 (XM_025437408.1) were obtained by PCR; GenBank reference accession numbers are provided in parentheses. RNA extraction, cDNA synthesis and PCR amplification were performed as described previously. Total RNA was extracted from a piece of dog brain (Beagle breed; Canis lupus familiaris) from which 1 µg of total RNA (DNase-treated) was reverse-transcribed to cDNA using a (dT)30 primer and SuperScript III Reverse Transcriptase (Invitrogen, Thermo Fisher Scientific, Waltham, MA, USA). Gene-specific primers (Additional file 1: Table S1) were designed using Primer 3 software (http://frodo.wi.mit.edu/). […] The cycling conditions were: 98 °C for 30 s; then 38 cycles of 98 °C for 10 s, 58 °C for 30 s and 72 °C for 90 s; followed by 72 °C for 5 min. The dog subunits α1 (XM_546261.5), β2 (XM_014113040.1) and γ2 (XM_546259.5) had been previously amplified and described in a study by Rufener et al..
(§2) Defoliculated X. laevis oocytes ordered from Ecocyte Bioscience (Dortmund, Germany) were microinjected with 15–25 nl of cRNA solution (5–50 ng/μl) per oocyte using an automated injector (Roboinject; Multi Channel Systems MCS GmbH, Reutlingen, Germany) and then incubated at 18 °C. All recordings were made 1–5 days post-cRNA injection and were performed at 18 ± 4 °C. Cells were superfused with OR2 medium (NaCl 88 mM, KCl 2.5 mM, HEPES 5 mM, CaCl2•2H2O 1.8 mM, MgCl2•7H2O 1.0 mM, pH 7.4). To ensure that γ2 subunits were integrated into the heteropentamers, we injected fivefold more γ2 than the other subunit cRNAs. Diazepam is a positive allosteric modulator of GABAR only if γ2 subunits are present. Therefore, we used this method to confirm the presence of human and dog GABAA receptor containing the γ2 subunit.
(§3) Voltage-clamp measurements were performed as described by Rufener et al.. Oocytes were impaled with two electrodes filled with 3 M KCl, and their membrane potentials were maintained at − 80 mV throughout the experiment. […] Recordings were performed using an automated process equipped with standard two-electrode voltage-clamp configuration (HiClamp system; Multi Channel Systems MCS GmbH). Data were filtered at 10 Hz, captured at 100 Hz and analyzed using proprietary data acquisition and analysis software in MATLAB (Mathworks Inc., Natick, MA, USA). Additional analyses were performed using Excel (Microsoft, Redmond, WA, USA). […] Graphing the maximum inward currents against the log of agonist concentration produces typical concentration-activation and concentration-inhibition curves, which can be accurately described using individual Hill equations.

Hsa-GABA α2β2γ2 = Hsa-GABA α2β2γ2 (Homo sapiens, UniProt P18507+P47869+P47870); assay: as above; conditions: for IC50: Xenopus oocytes, −80 mV, 60 s pre-exposure, co-applied with GABA 3 µM (near EC10)
Excerpt: as §1, §2, §3

Hsa-GABA α3β2γ2 = Hsa-GABA α3β2γ2 (Homo sapiens, UniProt P18507+P34903+P47870); assay: as above; conditions: Xenopus oocytes, −80 mV, 60 s pre-exposure, co-applied with GABA 1 µM (near EC10)
Excerpt: as §1, §2, §3

Hsa-GABA α6β2γ2 = Hsa-GABA α6β2γ2 (Homo sapiens, UniProt P18507+P47870+Q16445); assay: as above; conditions: for IC50: Xenopus oocytes, −80 mV, 60 s pre-exposure, co-applied with GABA 0.3 µM (near EC10)
Excerpt: as §1, §2, §3

Hsa-GABA α2β3γ2 = Hsa-GABA α2β3γ2 (Homo sapiens, UniProt P18507+P28472+P47869); assay: as above; conditions: Xenopus oocytes, −80 mV, 60 s pre-exposure, co-applied with GABA 1 µM (near EC10)
Excerpt: as §1, §2, §3

human and canine GABARs = assay: Voltage-clamp inhibition, summary over human and canine receptors; assay type: cell-based; conditions: tested up to 30 μM
Protocol: as §2
as §3, with “equations. The concentration-activation curves were fitted using the following equation: Y=100/1+10^H(logEC50-X) where Y is the normalized response, logEC50 is the logarithm of the concentration of agonist eliciting half-maximal current amplitude, X is the log of the dose or concentration, and H is the slope factor or Hill slope. The same equation was used for the concentration-inhibition curves but logEC50 was replaced by logIC50 (half-maximal inhibitory concentration).” for “equations.”
(§4) The agonist and the drug were then washed off for 15 s and the oocyte was exposed again to the same drug concentration for 25 s before increasing to the next concentration.

Hsa-GABARs = assay: Voltage-clamp inhibition, summary over the six human subunit combinations; conditions: for average GABA current inhibition: at 30 μM, average over Hsa-GABARs
Protocol: as §2
as §3, with “equations. The concentration-activation curves were fitted using the following equation: Y=100/1+10^H(logEC50-X) where Y is the normalized response, logEC50 is the logarithm of the concentration of agonist eliciting half-maximal current amplitude, X is the log of the dose or concentration, and H is the slope factor or Hill slope. The same equation was used for the concentration-inhibition curves but logEC50 was replaced by logIC50 (half-maximal inhibitory concentration).” for “equations.”
as §4

Clu-GABARs = assay: Voltage-clamp inhibition, summary over the five canine subunit combinations; assay type: cell-based, Canis lupus familiaris; conditions: at 30 μM
Protocol: as §2
as §3, with “equations. The concentration-activation curves were fitted using the following equation: Y=100/1+10^H(logEC50-X) where Y is the normalized response, logEC50 is the logarithm of the concentration of agonist eliciting half-maximal current amplitude, X is the log of the dose or concentration, and H is the slope factor or Hill slope. The same equation was used for the concentration-inhibition curves but logEC50 was replaced by logIC50 (half-maximal inhibitory concentration).” for “equations.”
as §4

[1] = parameters: method as in PMID 33733534; conditions: cited from earlier work; for maximum plasma concentration: dose of 25 mg/kg body weight
Clu-GABA α2β2γ2 = Clu-GABA α2β2γ2 (Canis lupus familiaris, UniProt A0A8I3RPG5+A0A8I3S1N5+E2RSQ0); assay: Two-electrode voltage-clamp inhibition of GABA current, receptor expressed in Xenopus oocytes; assay type: cell-based; conditions: Xenopus oocytes, −80 mV, 60 s pre-exposure, co-applied with GABA 5 µM (near EC10)
Excerpt: as §1, §2, §3

Clu-GABA α1β2γ2 = Clu-GABA α1β2γ2 (Canis lupus familiaris, UniProt A0A2H4NNI8+A0A8I3RPG5+E2RSQ0); assay: as above; assay type: cell-based; conditions: Xenopus oocytes, −80 mV, 60 s pre-exposure, co-applied with GABA 1 µM (near EC10)
Excerpt: as §1, §2, §3

Clu-GABA α5β2γ2 = Clu-GABA α5β2γ2 (Canis lupus familiaris, UniProt A0A8I3PC22+A0A8I3RPG5+E2RSQ0); assay: as above; assay type: cell-based; conditions: Xenopus oocytes, −80 mV, 60 s pre-exposure, co-applied with GABA 1 µM (near EC10)
Excerpt: as §1, §2, §3

Clu-GABA α3β2γ2 = Clu-GABA α3β2γ2 (Canis lupus familiaris, UniProt A0A8I3PRS3+A0A8I3RPG5+E2RSQ0); assay: as above; assay type: cell-based; conditions: Xenopus oocytes, −80 mV, 60 s pre-exposure, co-applied with GABA 0.5 µM (near EC10)
Excerpt: as §1, §2, §3

Clu-GABA α2β3γ2 = Clu-GABA α2β3γ2 (Canis lupus familiaris, UniProt A0A8I3NUI4+A0A8I3S1N5+E2RSQ0); assay: as above; assay type: cell-based; conditions: Xenopus oocytes, −80 mV, 60 s pre-exposure, co-applied with GABA 1 µM (near EC10)
Excerpt: as §1, §2, §3

Hsa-GABA α1β2γ2 = Hsa-GABA α1β2γ2 (Homo sapiens, UniProt P14867+P18507+P47870); assay: as above; conditions: Xenopus oocytes, −80 mV, 60 s pre-exposure, co-applied with GABA 1 µM (near EC10)
Excerpt: as §1, §2, §3

[2] = parameters: method as in earlier work; conditions: mdr1 mutant mouse model; cited from earlier work

Hsa-GABA α5β2γ2, sequence (P31644 32-462): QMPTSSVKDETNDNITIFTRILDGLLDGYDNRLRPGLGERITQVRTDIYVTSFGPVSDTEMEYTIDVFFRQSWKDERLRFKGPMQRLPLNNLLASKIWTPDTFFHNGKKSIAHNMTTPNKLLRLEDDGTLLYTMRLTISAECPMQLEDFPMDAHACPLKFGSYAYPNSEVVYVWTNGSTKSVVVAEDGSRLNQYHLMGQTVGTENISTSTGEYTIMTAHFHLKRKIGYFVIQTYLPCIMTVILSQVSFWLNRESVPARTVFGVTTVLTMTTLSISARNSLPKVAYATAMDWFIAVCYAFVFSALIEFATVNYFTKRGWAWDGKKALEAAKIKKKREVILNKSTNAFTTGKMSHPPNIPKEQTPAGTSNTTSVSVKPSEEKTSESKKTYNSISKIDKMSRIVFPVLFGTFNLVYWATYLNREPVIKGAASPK
Hsa-GABA α5β2γ2, sequence (P47870 26-474 isoform P47870-1 limits assumed): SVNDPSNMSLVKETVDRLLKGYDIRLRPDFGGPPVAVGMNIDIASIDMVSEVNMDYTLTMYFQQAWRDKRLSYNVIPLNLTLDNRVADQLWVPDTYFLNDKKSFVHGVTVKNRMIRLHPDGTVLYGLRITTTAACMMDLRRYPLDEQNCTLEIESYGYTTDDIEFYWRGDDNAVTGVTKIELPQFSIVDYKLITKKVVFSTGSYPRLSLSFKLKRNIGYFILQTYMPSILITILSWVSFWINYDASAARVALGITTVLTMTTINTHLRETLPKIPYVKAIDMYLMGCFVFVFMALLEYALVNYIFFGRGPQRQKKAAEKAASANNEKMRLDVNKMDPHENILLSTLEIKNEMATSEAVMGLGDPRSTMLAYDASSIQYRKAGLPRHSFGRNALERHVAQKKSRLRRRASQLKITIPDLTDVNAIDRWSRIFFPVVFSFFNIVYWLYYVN
Hsa-GABA α5β2γ2, sequence (P18507 40-467 isoform P18507-1 limits assumed): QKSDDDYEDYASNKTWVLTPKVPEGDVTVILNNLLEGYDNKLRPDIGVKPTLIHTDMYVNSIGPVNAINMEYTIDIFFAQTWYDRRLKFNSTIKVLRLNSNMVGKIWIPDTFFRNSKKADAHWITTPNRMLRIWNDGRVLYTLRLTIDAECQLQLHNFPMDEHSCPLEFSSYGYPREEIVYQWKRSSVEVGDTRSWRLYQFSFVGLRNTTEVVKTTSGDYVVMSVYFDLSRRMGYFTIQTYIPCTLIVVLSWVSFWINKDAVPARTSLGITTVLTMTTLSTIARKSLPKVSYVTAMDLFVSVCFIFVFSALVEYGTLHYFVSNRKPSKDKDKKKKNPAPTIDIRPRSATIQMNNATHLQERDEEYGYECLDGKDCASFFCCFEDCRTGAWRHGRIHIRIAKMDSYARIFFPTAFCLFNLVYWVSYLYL
Hsa-GABA α6β2γ2, sequence (Q16445 20-453): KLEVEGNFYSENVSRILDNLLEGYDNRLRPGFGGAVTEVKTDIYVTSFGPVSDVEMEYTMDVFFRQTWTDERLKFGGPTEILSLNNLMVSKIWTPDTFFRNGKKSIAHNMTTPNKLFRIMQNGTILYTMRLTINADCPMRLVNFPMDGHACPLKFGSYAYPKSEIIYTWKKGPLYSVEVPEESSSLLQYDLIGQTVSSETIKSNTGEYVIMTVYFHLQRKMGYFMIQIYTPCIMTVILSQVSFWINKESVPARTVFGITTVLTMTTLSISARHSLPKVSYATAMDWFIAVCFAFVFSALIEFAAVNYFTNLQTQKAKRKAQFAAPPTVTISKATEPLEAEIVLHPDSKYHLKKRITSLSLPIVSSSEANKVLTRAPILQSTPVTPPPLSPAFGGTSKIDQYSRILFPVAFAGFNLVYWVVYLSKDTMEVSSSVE
Hsa-GABA α6β2γ2, sequence (P47870 26-474 isoform P47870-1 limits assumed): as the sequence (P47870 26-474 isoform P47870-1 limits assumed) above
Hsa-GABA α6β2γ2, sequence (P18507 40-467 isoform P18507-1 limits assumed): as the sequence (P18507 40-467 isoform P18507-1 limits assumed) above
Hsa-GABA α2β2γ2, sequence (P47869 29-451): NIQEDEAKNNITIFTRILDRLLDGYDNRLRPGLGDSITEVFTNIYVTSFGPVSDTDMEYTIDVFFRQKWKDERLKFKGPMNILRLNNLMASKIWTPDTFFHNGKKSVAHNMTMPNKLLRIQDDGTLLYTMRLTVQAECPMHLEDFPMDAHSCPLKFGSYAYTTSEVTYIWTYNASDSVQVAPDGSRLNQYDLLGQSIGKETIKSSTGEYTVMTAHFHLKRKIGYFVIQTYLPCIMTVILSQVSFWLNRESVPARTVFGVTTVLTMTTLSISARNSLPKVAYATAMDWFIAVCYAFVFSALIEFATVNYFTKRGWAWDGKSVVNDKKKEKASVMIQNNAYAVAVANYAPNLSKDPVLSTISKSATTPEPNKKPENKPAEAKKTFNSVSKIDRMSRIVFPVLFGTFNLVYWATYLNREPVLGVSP
Hsa-GABA α2β2γ2, sequence (P47870 26-474 isoform P47870-1 limits assumed): as the sequence (P47870 26-474 isoform P47870-1 limits assumed) above
Hsa-GABA α2β2γ2, sequence (P18507 40-467 isoform P18507-1 limits assumed): as the sequence (P18507 40-467 isoform P18507-1 limits assumed) above

Compound | IC50 (Hsa-GABA α5β2γ2) [µM] | IC50 (Hsa-GABA α2β2γ2) [µM] | IC50 (Hsa-GABA α3β2γ2) [µM] | IC50 (Hsa-GABA α6β2γ2) [µM] | IC50 (Hsa-GABA α2β3γ2) [µM] | inhibitory effect on human and canine GABARs (in words) (human and canine GABARs) | average GABA current inhibition (Hsa-GABARs) [%] | average GABA current inhibition (Clu-GABARs) [%] | IC50 (Clu-GABA α2β2γ2) [µM] | IC50 (Clu-GABA α1β2γ2) [µM] | IC50 (Clu-GABA α5β2γ2) [µM] | IC50 (Clu-GABA α3β2γ2) [µM] | IC50 (Clu-GABA α2β3γ2) [µM] | other results
O=C(CNC(=O)c1ccc(C2=NOC(c3cc(Cl)cc(C(F)(F)F)c3)(C(F)(F)F)C2)c2ccccc12)NCC(F)(F)F (centres unmarked) [Afoxolaner, afoxolaner] | 6.3 | 9.9 | 15 | 11.7 | 20.5 | partial to high inhibition | 59 | 57 | 20.6 | 3 | 7.4 | 17.9 | 15.7 | Cmax ([1]; oral dosing at 2.5 mg/kg, read-out: Cmax (peak concentration in the bloodstream)): 4.7 µM
Cc1cc(C2=NOC(c3cc(Cl)cc(Cl)c3)(C(F)(F)F)C2)ccc1C(=O)NCC(=O)NCC(F)(F)F (centres unmarked) [Fluralaner, fluralaner] | 2.7 | 1.9 | 4.9 | 2.2 | 5.5 | partial to high inhibition | 82 | 76 | 2.2 | 4.3 | 2.3 | 9.4 | 13 | current inhibition (Hsa-GABA α5β2γ2; at 30 μM): > 90%; current inhibition (Hsa-GABA α2β2γ2; at 30 μM): > 90%; current inhibition (Hsa-GABA α6β2γ2; at 30 μM): > 90%; IC50 (Hsa-GABA α1β2γ2): 5.7 µM; inhibition of human GABARs (in words) (Hsa-GABARs; tested up to 30 μM): high inhibition; brain penetration (in words) [2]: brain penetration of fluralaner was observed; maximum plasma concentration ([1]; converted from ng/ml): 6.1 µM; maximum plasma concentration [1]: 3400 ng/mL
